Measured values as given in ChEMBL document CHEMBL1759873, “Novel thiolactone-isatin hybrids as potential antimalarial and antitubercular agents” (Bioorg Med Chem Lett, 2011).
≈ marks a conversion by molar mass, not a printed value.

Assays:
Plasmodium falciparum = test: Antiplasmodial activity against Plasmodium falciparum W2; format: functional, organism-based
[1] = system: Mycobacterium tuberculosis; test: Antitubercular activity against Mycobacterium tuberculosis H37Rv by microplate alamar blue assay; format: functional
[2] = system: Mycobacterium tuberculosis; test: Antitubercular activity against Mycobacterium tuberculosis H37Rv at 10 ug/ml by BACTEC radiometric susceptibility assay; format: functional
[3] = Inhibition of Plasmodium falciparum W2 recombinant falcipain-2
[4] = system: Mycobacterium tuberculosis; test: Antitubercular activity against Mycobacterium tuberculosis H37Rv at 1 ug/ml by BACTEC radiometric susceptibility assay; format: functional
[5] = system: Mycobacterium tuberculosis; test: Antitubercular activity against Mycobacterium tuberculosis H37Rv by LORA assay; format: functional

Compound	IC50 (Plasmodium falciparum) [µM]	MIC [1] [µM]	inhibition at 10 µg/mL [2] [%]	IC50 [3] [µM]	inhibition at 1 µg/mL [4] [%]	MIC [5] [µM]
CC1=C2OCCCCN3C(=O)C(O)(c4cc(C)ccc43)C2(C)SC1=O (stereo unspecified)	> 20	> 128	-0.4	> 100	-0.6	–
CC1=C(OCCCN2C(=O)C(=O)c3ccccc32)C(C)SC1=O (stereo unspecified)	> 20	> 128	14.9	> 100	-18.5	–
O=C1C(=O)N(CCCCCCBr)c2ccc(F)cc21	–	62.3 (≈ 20.4 µg/mL)	–	–	–	31.5 (≈ 10.3 µg/mL)
CC1=C2OCCCCN3C(=O)C(O)(c4cc(F)ccc43)C2(C)SC1=O (stereo unspecified)	> 20	> 128	1.3	> 100	4.9	–
COc1c(N2C[C@@H]3CCCN[C@@H]3C2)c(F)cc2c(=O)c(C(=O)O)cn(C3CC3)c12 [MOXIFLOXACIN]	–	0.29 (≈ 0.116 µg/mL)	–	–	–	31.1 (≈ 12.5 µg/mL)
CC1=C2OCCCCN3C(=O)C(O)(c4cc(Br)ccc43)C2(C)SC1=O (stereo unspecified)	> 20	> 128	5.1	> 100	-16.2	–
CC(C)C[C@H](NC(=O)[C@H]1O[C@@H]1C(=O)O)C(=O)NCCCCN=C(N)N [E-64]	–	–	–	0.0473	–	–
CC1=C(OCCCCN2C(=O)C(=O)c3ccccc32)C(C)SC1=O (stereo unspecified)	> 20	> 128	42.6	> 100	33.4	–
CC1=C(OCCN2C(=O)C(=O)c3cc(C)ccc32)C(C)SC1=O (stereo unspecified)	> 20	> 128	4	> 100	-12	–
CC1=C(OCCN2C(=O)C(=O)c3cc(I)ccc32)C(C)SC1=O (stereo unspecified)	> 20	> 128	42	17.8	-3.2	–
CO[C@H]1/C=C/O[C@@]2(C)Oc3c(C)c(O)c4c(O)c(c(/C=N/N5CCN(C)CC5)c(O)c4c3C2=O)NC(=O)/C(C)=C\C=C\[C@H](C)[C@H](O)[C@@H](C)[C@@H](O)[C@@H](C)[C@H](OC(C)=O)[C@@H]1C [RIFAMPIN]	–	0.05 (≈ 0.0411 µg/mL)	–	–	–	2.4 (≈ 1.98 µg/mL)
CC1=C2OCCCCCCN3C(=O)C(O)(c4cc(Cl)ccc43)C2(C)SC1=O (stereo unspecified)	7.41	> 128	-20	> 100	-16	–
O=C1C(=O)N(CCCCBr)c2ccc(Cl)cc21	> 20	30.5 (≈ 9.66 µg/mL)	–	> 100	–	30.5 (≈ 9.66 µg/mL)
CC1=C(OCCN2C(=O)C(=O)c3cc(Br)ccc32)C(C)SC1=O (stereo unspecified)	17.4	–	–	31.7	–	–
CC1=C2OCCCCCN3C(=O)C(O)(c4cc(I)ccc43)C2(C)SC1=O (stereo unspecified)	> 20	> 128	-40.7	> 100	-39.7	–
CC1=C2OCCCCCN3C(=O)C(O)(c4cc(Cl)ccc43)C2(C)SC1=O (stereo unspecified)	> 20	> 128	-15.2	> 100	0	–
CC1=C2OCCCCN3C(=O)C(O)(c4ccccc43)C2(C)SC1=O (stereo unspecified)	> 20	> 128	18.1	> 100	17	–
CC1=C(OCCCCCCN2C(=O)C(=O)c3ccccc32)C(C)SC1=O (stereo unspecified)	12.3	> 128	36.4	32	27.7	–
C=C/C(C)=C/[C@@]1(C)SC(=O)C(C)=C1O [THIOLACTOMYCIN]	> 20	> 128	58.6	> 100	-3.8	–
CC1=C2OCCCCCCN3C(=O)C(O)(c4cc(F)ccc43)C2(C)SC1=O (stereo unspecified)	14	> 128	-28	> 100	-35	–
O=C1C(=O)N(CCCBr)c2ccccc21	> 20	> 128	–	> 100	–	–

Compound	IC50 (Plasmodium falciparum) [µM]	MIC [1] [µM]	inhibition at 10 µg/mL [2] [%]	IC50 [3] [µM]	inhibition at 1 µg/mL [4] [%]	MIC [5] [µM]
CC1=C(OCCN2C(=O)C(=O)c3ccccc32)C(C)SC1=O (stereo unspecified)	> 20	> 128	34.7	40.2	31.7	–
O=C1C(=O)N(CCCCBr)c2ccc(F)cc21	> 20	123 (≈ 36.9 µg/mL)	–	> 100	–	53.3 (≈ 16 µg/mL)
CC1=C(O)SC(C)C1=O (stereo unspecified) [THIOLACTONE]	> 20	> 128	-32.8	> 100	-24.5	–
O=C1C(=O)N(CCCCBr)c2ccccc21	> 20	96.5 (≈ 27.2 µg/mL)	–	> 100	–	28.8 (≈ 8.13 µg/mL)
CC1=C2OCCCCCCN3C(=O)C(O)(c4ccccc43)C2(C)SC1=O (stereo unspecified)	11.5	> 128	18.5	> 100	9.4	–
O=C1C(=O)N(CCBr)c2ccccc21	> 20	> 128	–	> 100	–	–
CC1=C(OCCN2C(=O)C(=O)c3cc(F)ccc32)C(C)SC1=O (stereo unspecified)	> 20	> 128	22	89.6	-29	–
CC1=C2OCCCCN3C(=O)C(O)(c4cc([N+](=O)[O-])ccc43)C2(C)SC1=O (stereo unspecified)	> 20	> 128	-5.1	44.5	-3	–
CC1=C2OCCCCCN3C(=O)C(O)(c4ccccc43)C2(C)SC1=O (stereo unspecified)	> 20	> 128	32.6	> 100	21.9	–
CC1=C2OCCCCCCN3C(=O)C(O)(c4cc(Br)ccc43)C2(C)SC1=O (stereo unspecified)	6.93	> 128	-0.5	83.4	8.1	–
CC1=C2OCCCCN3C(=O)C(O)(c4cc(I)ccc43)C2(C)SC1=O (stereo unspecified)	> 20	> 128	19.6	> 100	4.9	–
O=C1C(=O)N(CCCCBr)c2ccc(I)cc21	> 20	15.5 (≈ 6.32 µg/mL)	–	> 100	–	57.1 (≈ 23.3 µg/mL)
CN[C@@H]1[C@H](O[C@H]2[C@H](O[C@H]3[C@H](O)[C@@H](O)[C@H](N=C(N)N)[C@@H](O)[C@@H]3N=C(N)N)O[C@@H](C)[C@]2(O)C=O)O[C@@H](CO)[C@H](O)[C@H]1O [STREPTOMYCIN]	–	0.43 (≈ 0.25 µg/mL)	–	–	–	–
CC1=C2OCCCCCCN3C(=O)C(O)(c4cc(I)ccc43)C2(C)SC1=O (stereo unspecified)	6.92	> 128	-40	48.3	-34	–
NNC(=O)c1ccncc1 [ISONIAZID]	–	0.37 (≈ 0.0507 µg/mL)	–	–	–	> 128
O=C1C(=O)N(CCCCBr)c2ccc([N+](=O)[O-])cc21	> 20	> 128	–	> 100	–	–
O=[N+]([O-])c1cn2c(n1)OC[C@@H](OCc1ccc(OC(F)(F)F)cc1)C2 [PRETOMANID]	–	0.16 (≈ 0.0575 µg/mL)	–	–	–	3.3 (≈ 1.19 µg/mL)
CC1=C2OCCCCCN3C(=O)C(O)(c4cc(Br)ccc43)C2(C)SC1=O (stereo unspecified)	> 20	> 128	-21.1	10.1	-26	–
O=C1C(=O)N(CCCCCCBr)c2ccc(Cl)cc21	–	29.7 (≈ 10.2 µg/mL)	–	–	–	31 (≈ 10.7 µg/mL)
CC1=C2OCCCCN3C(=O)C(O)(c4cc(Cl)ccc43)C2(C)SC1=O (stereo unspecified)	> 20	> 128	15.3	> 100	13.4	–
CC1=C(OCCCCCN2C(=O)C(=O)c3ccccc32)C(C)SC1=O (stereo unspecified)	15.3	> 128	34	58	34.9	–
